# Source: PMC6439253, “Complete NMR chemical shift assignments of odorant binding protein 22 from the yellow fever mosquito, Aedes aegypti, bound to arachidonic acid” (Biomolecular Nmr Assignments, 2019)
# Molecular target: T1, AeOBP22 (odorant binding protein 22) (Aedes aegypti, UniProt Q1HRL7)
# T1 construct: mature form, residues 17-138, signal peptide (1-16) removed, added N-terminal initiator Met, no tags (123 residues); monomer; 13C/15N labelled for NMR
# T1 sequence (Q1HRL7 17-138): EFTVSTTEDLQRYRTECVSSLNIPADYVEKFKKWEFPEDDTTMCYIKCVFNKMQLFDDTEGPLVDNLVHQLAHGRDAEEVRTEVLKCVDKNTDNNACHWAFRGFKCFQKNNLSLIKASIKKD
# Assay: fluorescence-based binding assay (preliminary); binding confirmed by NMR
smiles,measurement,value
CCCCC/C=C\C/C=C\C/C=C\C/C=C\CCCC(=O)O [arachidonic acid],Kd,~230 nM
